Data: patent US6822146B2, “Sulfonylurea-tolerant sunflower line M7” (priority 2000, dated 2004)

Tests used:
O. cernua = conditions: preemergence application of a low dose (2 to 6 g/ha), with sunflower tolerance; cited from earlier work
M5M7 = test: Test B greenhouse phytotoxicity, M5M7; format: in vivo, sunflower; conditions: in vivo
Experimental: (§1) A greenhouse experiment was conducted to evaluate the spectrum of tolerance of three homozygous resistant mutants to various herbicides inhibiting acetolactate synthase (ALS) as their mode of action. The inbred lines tested were the 5th generation self-pollinated maintainers, M5M7, M5M11 and M5M12, as well as the 4th generation male sterile back-crosses BC4-M5M7, BC4-M5M11 and BC4-M5M12. Treatments of formulated herbicides were applied post-emergence at the 4-leaf stage. Application rates of the test herbicides were chosen to coincide with the rates commonly used in the crops for which they are registered. The application rate of imazethapyr was chosen to match the rate recommended to control parasitic weeds in sunflowers by L. García-Torres et al., Weed Technology 1995, 9, 819-824. Wild type H89 inbred sunflower was not included in this test, because the many of the tested herbicides are known to be efficacious in controlling volunteer sunflower as a weed. Treatments were replicated twice. […] A rating of 0% phytotoxicity means no crop injury.

[1] = test system: homozygous progeny of the three mutant sources; format: in vivo, sunflower; conditions: Test B application rates, post-emergence
Experimental: as §1

Orobanche cumana = test: Test E control of Orobanche cumana in resistant sunflower hybrid; format: in vivo
Experimental: The effect of the various treatments was evaluated 35 days after sowing. The sunflower roots were cleaned by washing in water, and the presence of Orobanche nodules was determined visually and by weighing root wet mass in comparison to check plants free of Orobanche infestation. […] The nodules caused by Orobanche increased root weight, and a correlation (r=0.7) was found between visual scores and weight measurements. Thus the weighing technique could be used to corroborate visual efficacy scorings. Orobanche emergence was also scored but found to be less useful to evaluate treatment efficiency at the evaluation timing of this test.
(§2) Based on the results from Test D, a modified protocol was developed to include three timings of post-emergence treatment. The hybrid BC4-M5M12 (female parent)×PHA155 restorer line (male parent) described in Test C was used in this test. Various herbicide programs were tested using three replications. […] Seed coatings of these formulated herbicides were applied to 6 kg of seeds in such amount that considering the distribution of the coated seeds in each pot, the herbicide active ingredient (a.i.) application rates per hectare were as indicated.
(§3) The treatments were applied similar to the methods described for Test D. Pre-emergence applications were broadcast only, not soil incorporated. For pre-emergence application, the pots were sprayed using the high rates of the herbicides two days after sowing the sunflower seeds. Post-emergence treatments were applied at the 4-6 leaf stage of sunflower (corresponding to early stage of Orobanche attachment; identified as “T1”), the 6-8 leaf stage of sunflower (corresponding to the mid stage of Orobanche attachment; nodules <5 mm diameter; identified as “T2”) and 8-12 leaf stage of sunflower (corresponding to late stage of Orobanche attachment; identified as “T3”). The mid-stage applications included the high as well as low application rates of each herbicide.
(§4) For comparison were also included in this test other acetolactate synthase-inhibiting herbicides reported in the literature as giving good weed control of Orobanche (L. García-Torres et al., Weed Research 1994, 34, 395-402; L. García-Torres et al., Weed Technology 1995, 9, 819-824; J. Hershenhorn et al., Weed Technology 1998, 12, 108-114).

BC4-M5M11 = test: Test B greenhouse phytotoxicity, BC4-M5M11; format: in vivo, sunflower; conditions: in vivo
Experimental: as §1

M5M12 = test: Test B greenhouse phytotoxicity, M5M12; format: in vivo, sunflower; conditions: in vivo
Experimental: as §1

[2] = test system: BC4-M5M12 × PHA155 hybrid; test: Test E injury to sunflower hybrid; format: in vivo; conditions: in vivo
Experimental: as §2, §3, §4

BC4-M5M12 = test: Test B greenhouse phytotoxicity, BC4-M5M12; format: in vivo, sunflower; conditions: in vivo
Experimental: as §1

BC4-M5M7 = test: Test B greenhouse phytotoxicity, BC4-M5M7; format: in vivo, sunflower; conditions: in vivo
Experimental: as §1

M5M11 = test: Test B greenhouse phytotoxicity, M5M11; format: in vivo, sunflower; conditions: in vivo
Experimental: as §1

'HA89B' seed = test: Determination of optimum mutagen concentration; format: in vivo, sunflower; conditions: EMS 20 to 40 mM
Experimental: Batches each consisting of 6000 seeds of ‘HA89B’ were incubated in 0.1 M potassium phosphate buffer (pH 5.6), supplemented with concentrations of EMS between 0 and 80 mM for 18 hours at room temperature, causing the seeds to swell. The seeds were rinsed in sodium thiosulfate for 1 minute to decompose the EMS, then in 5 consecutive water washes to eliminate EMS traces. The overall rinsing procedure lasted 5 hours. Seeds were dried for 2 hours at 25° C. using an airflow drier and then divided into sub-batches of 200 seeds each. To determine the effect of EMS on germination and plant branching, sub-batches were sown in flats right after drying and following 2, 4 and 6 days of storage at 4° C. after drying. Plant branching was used as a visual measure of mutation frequencies. Sub-batches from each EMS concentration were also sown in pots right after drying and grown to maturity to determine effect of EMS treatments on seed setting.

COc1nc(C)nc(NC(=O)NS(=O)(=O)c2ccccc2Cl)n1 [Chlorsulfuron, chlorsulfuron]
control of O. cernua (O. cernua): 75-85%
Maximum Phytotoxicity (M5M7): 47.5%
tolerance of the mutants [1]: somewhat sensitive
relative efficacy in controlling Orobanche (Orobanche cumana; Test E rates, metsulfuron-methyl compared with tribenuron-methyl): less efficacious in controlling Orobanche
Control (Orobanche cumana; pre-emergence 2 g a.i./ha): 13%
Control (Orobanche cumana; pre-emergence 10 g a.i./ha): 58%
Maximum Phytotoxicity (BC4-M5M11): 50%
Maximum Phytotoxicity (M5M12): 45%
Injury [2]: 0%
Maximum Phytotoxicity (BC4-M5M12): 45%
Maximum Phytotoxicity (BC4-M5M7): 45%
Maximum Phytotoxicity (M5M11): 50%

CCOS(C)(=O)=O [EMS, ethyl methanesulfonate]
plants producing viable seed ('HA89B' seed): more than half of the plants produced viable seed
plant branching (visual measure of mutation frequencies) ('HA89B' seed; about 12% of plants from untreated seeds branched): more than half of the plants were branched
